According to ChEMBL document CHEMBL4507274 (2021):

Experiments:
[1] = target: Discoidin domain-containing receptor 2 (Homo sapiens) (UniProt Q16832); details: Compound concentration 100.0 nM
[2] = target: D(2) dopamine receptor (Homo sapiens) (UniProt P14416); details: Compound concentration 10.0 uM
[3] = target: Macrophage colony-stimulating factor 1 receptor (Homo sapiens) (UniProt P07333); details: Compound concentration 100.0 nM
[4] = target: Dual specificity mitogen-activated protein kinase kinase 2 (Homo sapiens) (UniProt P36507); details: Compound concentration 100.0 nM
[5] = target: Platelet-derived growth factor receptor alpha (Homo sapiens) (UniProt P16234); details: Compound concentration 100.0 nM
[6] = target: NUAK family SNF1-like kinase 1 (Homo sapiens) (UniProt O60285); details: Compound concentration 100.0 nM
[7] = target: Alpha-2B adrenergic receptor (Homo sapiens) (UniProt P18089); details: Compound concentration 10.0 uM
Alpha-2B adrenergic receptor (Homo sapiens), sequence (P18089 whole entry): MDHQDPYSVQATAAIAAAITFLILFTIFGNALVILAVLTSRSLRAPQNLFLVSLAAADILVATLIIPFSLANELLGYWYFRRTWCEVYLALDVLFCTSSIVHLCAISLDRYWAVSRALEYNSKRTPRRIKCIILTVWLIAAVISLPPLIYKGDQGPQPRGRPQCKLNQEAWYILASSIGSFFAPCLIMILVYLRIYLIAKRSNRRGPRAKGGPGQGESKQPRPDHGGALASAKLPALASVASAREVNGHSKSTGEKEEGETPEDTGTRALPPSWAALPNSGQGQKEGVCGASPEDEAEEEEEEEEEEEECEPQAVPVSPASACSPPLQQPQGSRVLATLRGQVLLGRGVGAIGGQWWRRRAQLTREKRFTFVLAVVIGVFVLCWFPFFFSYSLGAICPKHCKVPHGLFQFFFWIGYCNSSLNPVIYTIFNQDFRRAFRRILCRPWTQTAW

[8] = target: Cyclin-dependent kinase 2 homolog (Plasmodium falciparum (isolate 3D7)) (UniProt P61075); details: Compound concentration 100.0 nM
[9] = target: Mitogen-activated protein kinase kinase kinase 9 (Homo sapiens) (UniProt P80192); details: Compound concentration 100.0 nM
Mitogen-activated protein kinase kinase kinase 9 (Homo sapiens), sequence (P80192 whole entry, looked up): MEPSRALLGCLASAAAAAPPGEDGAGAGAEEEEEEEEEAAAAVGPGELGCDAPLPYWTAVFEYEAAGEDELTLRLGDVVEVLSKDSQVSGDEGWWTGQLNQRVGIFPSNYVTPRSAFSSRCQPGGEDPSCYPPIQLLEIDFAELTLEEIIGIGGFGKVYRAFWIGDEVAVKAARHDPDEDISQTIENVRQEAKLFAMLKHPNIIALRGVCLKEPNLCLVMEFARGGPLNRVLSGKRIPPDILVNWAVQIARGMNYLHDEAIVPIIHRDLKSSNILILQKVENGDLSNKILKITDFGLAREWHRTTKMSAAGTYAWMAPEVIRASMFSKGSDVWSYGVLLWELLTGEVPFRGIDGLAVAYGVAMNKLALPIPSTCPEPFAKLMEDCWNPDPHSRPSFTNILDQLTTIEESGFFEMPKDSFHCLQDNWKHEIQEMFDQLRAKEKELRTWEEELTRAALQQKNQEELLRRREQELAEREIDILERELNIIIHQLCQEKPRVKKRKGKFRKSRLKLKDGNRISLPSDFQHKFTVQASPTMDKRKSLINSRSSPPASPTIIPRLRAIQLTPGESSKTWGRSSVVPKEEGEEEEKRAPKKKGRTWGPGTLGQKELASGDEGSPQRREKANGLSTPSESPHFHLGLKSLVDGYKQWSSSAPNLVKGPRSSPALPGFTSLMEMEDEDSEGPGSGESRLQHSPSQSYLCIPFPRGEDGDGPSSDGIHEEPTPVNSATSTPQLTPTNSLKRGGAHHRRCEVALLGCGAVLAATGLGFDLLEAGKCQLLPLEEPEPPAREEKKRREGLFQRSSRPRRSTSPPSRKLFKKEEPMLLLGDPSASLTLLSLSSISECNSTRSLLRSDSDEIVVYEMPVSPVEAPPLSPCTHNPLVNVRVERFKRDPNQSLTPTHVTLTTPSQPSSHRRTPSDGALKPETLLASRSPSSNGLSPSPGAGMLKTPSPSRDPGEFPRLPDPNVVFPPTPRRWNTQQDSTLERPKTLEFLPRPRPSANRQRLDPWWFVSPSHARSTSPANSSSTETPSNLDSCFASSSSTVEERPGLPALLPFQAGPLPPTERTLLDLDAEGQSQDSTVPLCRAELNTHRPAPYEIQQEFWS

[10] = target: Proto-oncogene tyrosine-protein kinase Src (Homo sapiens) (UniProt P12931); details: Compound concentration 100.0 nM
[11] = test system: Tyrosine-protein kinase ABL1 (Homo sapiens), P00519 [Q252H]; details: Compound concentration 100.0 nM
[12] = target: Ribosomal protein S6 kinase alpha-6 (Homo sapiens) (UniProt Q9UK32); details: Compound concentration 100.0 nM
[13] = target: Mitogen-activated protein kinase kinase kinase kinase 1 (Homo sapiens) (UniProt Q92918); details: Compound concentration 100.0 nM
[14] = target: Mitogen-activated protein kinase kinase kinase 1 (Homo sapiens) (UniProt Q13233); details: Compound concentration 100.0 nM
[15] = target: Protein kinase C theta type (Homo sapiens) (UniProt Q04759); details: Compound concentration 100.0 nM
[16] = target: Vascular endothelial growth factor receptor 1 (Homo sapiens) (UniProt P17948); details: Compound concentration 100.0 nM
[17] = target: Phosphatidylinositol 4-phosphate 5-kinase type-1 alpha (Homo sapiens) (UniProt Q99755); details: Compound concentration 100.0 nM
[18] = target: TGF-beta receptor type-2 (Homo sapiens) (UniProt P37173); details: Compound concentration 100.0 nM
[19] = test system: Phosphatidylinositol 4,5-bisphosphate 3-kinase catalytic subunit alpha isoform (Homo sapiens), P42336 [M1043I]; details: Compound concentration 100.0 nM
[20] = target: Mitogen-activated protein kinase kinase kinase 3 (Homo sapiens) (UniProt Q99759); details: Compound concentration 100.0 nM
Mitogen-activated protein kinase kinase kinase 3 (Homo sapiens), sequence (Q99759 whole entry): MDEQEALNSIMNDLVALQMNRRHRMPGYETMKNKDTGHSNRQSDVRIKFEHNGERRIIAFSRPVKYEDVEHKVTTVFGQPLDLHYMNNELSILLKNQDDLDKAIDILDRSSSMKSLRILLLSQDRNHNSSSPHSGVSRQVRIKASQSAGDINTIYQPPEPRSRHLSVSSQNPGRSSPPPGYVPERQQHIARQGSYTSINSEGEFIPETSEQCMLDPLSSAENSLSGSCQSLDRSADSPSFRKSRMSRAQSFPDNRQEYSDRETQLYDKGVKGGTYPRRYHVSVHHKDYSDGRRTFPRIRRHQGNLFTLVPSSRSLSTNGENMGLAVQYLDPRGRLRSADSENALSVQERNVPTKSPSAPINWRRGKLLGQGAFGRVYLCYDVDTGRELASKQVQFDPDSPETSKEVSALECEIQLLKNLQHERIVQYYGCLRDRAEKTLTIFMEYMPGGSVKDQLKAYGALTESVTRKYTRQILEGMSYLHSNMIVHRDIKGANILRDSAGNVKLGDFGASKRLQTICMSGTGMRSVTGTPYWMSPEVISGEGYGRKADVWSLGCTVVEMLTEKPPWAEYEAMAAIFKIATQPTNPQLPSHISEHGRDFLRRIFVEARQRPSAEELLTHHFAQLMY

[21] = target: cAMP-dependent protein kinase catalytic subunit beta (Homo sapiens) (UniProt P22694); details: Compound concentration 100.0 nM
[22] = target: Serine/threonine-protein kinase WNK1 (Homo sapiens) (UniProt Q9H4A3); details: Compound concentration 100.0 nM
Serine/threonine-protein kinase WNK1 (Homo sapiens), sequence (Q9H4A3 whole entry, looked up): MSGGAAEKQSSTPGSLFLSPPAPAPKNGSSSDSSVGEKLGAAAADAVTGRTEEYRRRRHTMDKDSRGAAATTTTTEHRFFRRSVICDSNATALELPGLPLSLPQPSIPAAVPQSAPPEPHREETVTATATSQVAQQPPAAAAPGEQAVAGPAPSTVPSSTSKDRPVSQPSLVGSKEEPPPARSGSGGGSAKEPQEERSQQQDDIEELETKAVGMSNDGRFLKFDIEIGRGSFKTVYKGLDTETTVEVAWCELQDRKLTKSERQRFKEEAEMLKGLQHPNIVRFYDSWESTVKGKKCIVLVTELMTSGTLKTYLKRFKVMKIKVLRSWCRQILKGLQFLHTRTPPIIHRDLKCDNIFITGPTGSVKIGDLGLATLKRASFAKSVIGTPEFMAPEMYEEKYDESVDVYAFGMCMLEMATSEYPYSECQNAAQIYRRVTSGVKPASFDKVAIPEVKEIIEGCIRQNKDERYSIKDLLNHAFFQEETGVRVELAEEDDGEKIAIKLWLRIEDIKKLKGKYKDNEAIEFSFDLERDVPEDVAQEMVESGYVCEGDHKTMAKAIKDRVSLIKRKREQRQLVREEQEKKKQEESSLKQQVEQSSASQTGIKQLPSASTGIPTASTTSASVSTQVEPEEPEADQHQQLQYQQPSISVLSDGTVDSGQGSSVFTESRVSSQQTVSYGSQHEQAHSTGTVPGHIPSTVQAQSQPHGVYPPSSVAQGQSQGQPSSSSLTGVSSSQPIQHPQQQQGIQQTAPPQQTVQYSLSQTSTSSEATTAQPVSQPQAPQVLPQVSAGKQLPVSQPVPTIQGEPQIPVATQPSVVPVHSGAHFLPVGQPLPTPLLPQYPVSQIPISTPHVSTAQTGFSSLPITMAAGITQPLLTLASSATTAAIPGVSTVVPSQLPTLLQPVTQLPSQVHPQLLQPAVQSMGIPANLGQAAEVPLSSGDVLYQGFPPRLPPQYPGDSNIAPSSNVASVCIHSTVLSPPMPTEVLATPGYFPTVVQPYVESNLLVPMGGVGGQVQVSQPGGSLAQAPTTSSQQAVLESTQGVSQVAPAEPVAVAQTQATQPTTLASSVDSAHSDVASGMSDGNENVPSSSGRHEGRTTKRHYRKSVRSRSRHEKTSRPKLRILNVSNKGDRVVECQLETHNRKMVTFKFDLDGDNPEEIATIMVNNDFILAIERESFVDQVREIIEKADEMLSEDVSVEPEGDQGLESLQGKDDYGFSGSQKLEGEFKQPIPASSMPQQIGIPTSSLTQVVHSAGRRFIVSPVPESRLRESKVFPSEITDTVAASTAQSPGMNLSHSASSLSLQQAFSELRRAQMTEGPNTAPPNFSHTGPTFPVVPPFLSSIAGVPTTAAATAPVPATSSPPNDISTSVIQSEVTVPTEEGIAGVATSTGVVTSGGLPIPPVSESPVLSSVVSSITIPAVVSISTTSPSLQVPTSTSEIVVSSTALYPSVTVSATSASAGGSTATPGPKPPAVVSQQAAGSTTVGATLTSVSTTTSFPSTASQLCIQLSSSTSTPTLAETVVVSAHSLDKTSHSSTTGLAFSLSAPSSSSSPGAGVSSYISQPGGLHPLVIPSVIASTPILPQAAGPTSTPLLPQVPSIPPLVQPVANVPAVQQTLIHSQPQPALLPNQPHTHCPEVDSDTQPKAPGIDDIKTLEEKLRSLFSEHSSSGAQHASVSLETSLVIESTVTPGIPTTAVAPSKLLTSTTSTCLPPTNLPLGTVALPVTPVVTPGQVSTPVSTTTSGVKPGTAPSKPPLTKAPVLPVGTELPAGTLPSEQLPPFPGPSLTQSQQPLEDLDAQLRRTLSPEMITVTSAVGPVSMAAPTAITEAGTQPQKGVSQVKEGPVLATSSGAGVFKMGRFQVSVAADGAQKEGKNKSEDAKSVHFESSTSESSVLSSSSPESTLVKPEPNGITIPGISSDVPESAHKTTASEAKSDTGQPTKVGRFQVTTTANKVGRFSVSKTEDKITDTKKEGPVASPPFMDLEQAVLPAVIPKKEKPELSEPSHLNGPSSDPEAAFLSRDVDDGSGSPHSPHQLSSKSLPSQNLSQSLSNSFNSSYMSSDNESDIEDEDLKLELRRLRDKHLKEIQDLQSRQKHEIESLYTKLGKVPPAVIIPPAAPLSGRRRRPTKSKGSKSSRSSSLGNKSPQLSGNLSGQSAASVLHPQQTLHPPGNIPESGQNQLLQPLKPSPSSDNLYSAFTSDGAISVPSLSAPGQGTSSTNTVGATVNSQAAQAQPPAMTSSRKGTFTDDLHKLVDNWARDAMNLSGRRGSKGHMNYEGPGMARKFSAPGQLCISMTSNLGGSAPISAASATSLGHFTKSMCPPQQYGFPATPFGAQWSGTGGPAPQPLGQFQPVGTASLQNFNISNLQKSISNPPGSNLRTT

[23] = test system: Mast/stem cell growth factor receptor Kit (Homo sapiens), P10721 [V559D,T670I]; details: Compound concentration 100.0 nM
[24] = target: Ribosomal protein S6 kinase alpha-1 (Homo sapiens) (UniProt Q15418); details: Compound concentration 100.0 nM
[25] = target: Cyclin-dependent kinase 17 (Homo sapiens) (UniProt Q00537); details: Compound concentration 100.0 nM
[26] = target: Tyrosine-protein kinase ABL1 (Homo sapiens) (UniProt P00519); details: Compound concentration 100.0 nM
[27] = test system: Tyrosine-protein kinase ABL1 (Homo sapiens), P00519 [Y253F]; details: Compound concentration 100.0 nM
[28] = target: Mitogen-activated protein kinase kinase kinase 12 (Homo sapiens) (UniProt Q12852); details: Compound concentration 100.0 nM
[29] = target: Mitogen-activated protein kinase kinase kinase 6 (Homo sapiens) (UniProt O95382); details: Compound concentration 100.0 nM
[30] = target: Phosphatidylinositol 5-phosphate 4-kinase type-2 gamma (Homo sapiens) (UniProt Q8TBX8); details: Compound concentration 100.0 nM
[31] = target: Calcium/calmodulin-dependent protein kinase type 1 (Homo sapiens) (UniProt Q14012); details: Compound concentration 100.0 nM
[32] = test system: Tyrosine-protein kinase ABL1 (Homo sapiens), P00519 [F317L]; details: Compound concentration 100.0 nM
[33] = target: Cyclin-dependent kinase 8 (Homo sapiens) (UniProt P49336); details: Compound concentration 100.0 nM
Cyclin-dependent kinase 8 (Homo sapiens), sequence (P49336 whole entry): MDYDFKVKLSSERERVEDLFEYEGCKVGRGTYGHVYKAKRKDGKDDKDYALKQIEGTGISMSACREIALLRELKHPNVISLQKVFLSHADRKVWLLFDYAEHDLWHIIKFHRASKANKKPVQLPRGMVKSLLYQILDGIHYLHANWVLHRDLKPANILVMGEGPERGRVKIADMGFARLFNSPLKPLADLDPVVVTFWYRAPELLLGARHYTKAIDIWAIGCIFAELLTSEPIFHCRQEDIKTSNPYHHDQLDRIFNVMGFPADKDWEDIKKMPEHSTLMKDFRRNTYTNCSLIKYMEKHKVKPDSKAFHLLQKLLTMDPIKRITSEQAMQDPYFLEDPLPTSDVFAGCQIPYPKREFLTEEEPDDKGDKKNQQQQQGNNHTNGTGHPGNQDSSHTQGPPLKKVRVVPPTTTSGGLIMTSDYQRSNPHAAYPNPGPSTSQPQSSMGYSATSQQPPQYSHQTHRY

[34] = target: MAP/microtubule affinity-regulating kinase 4 (Homo sapiens) (UniProt Q96L34); details: Compound concentration 100.0 nM
[35] = target: Glycogen synthase kinase-3 beta (Homo sapiens) (UniProt P49841); details: Compound concentration 100.0 nM
[36] = test system: Hepatocyte growth factor receptor (Homo sapiens), P08581 [M1250T]; details: Compound concentration 100.0 nM
[37] = target: Tyrosine-protein kinase Fyn (Homo sapiens) (UniProt P06241); details: Compound concentration 100.0 nM
[38] = target: NT-3 growth factor receptor (Homo sapiens) (UniProt Q16288); details: Compound concentration 100.0 nM
[39] = target: Proto-oncogene tyrosine-protein kinase receptor Ret (Homo sapiens) (UniProt P07949); details: Compound concentration 100.0 nM

Row | Structure (SMILES) | residual activity [1] [%] | inhibition [2] [%] | residual activity [3] [%] | residual activity [4] [%] | residual activity [5] [%] | residual activity [6] [%] | inhibition [7] [%] | residual activity [8] [%] | residual activity [9] [%] | residual activity [10] [%] | residual activity [11] [%] | residual activity [12] [%] | residual activity [13] [%] | residual activity [14] [%] | residual activity [15] [%] | residual activity [16] [%] | residual activity [17] [%] | residual activity [18] [%] | residual activity [19] [%] | residual activity [20] [%] | other results
1 | Cc1c[nH]c2nccc(Oc3c(F)cc(Nc4cc(Cl)nc(N)n4)cc3F)c12 [BAY-549] | 57 | -4.56 | 100 | 91 | 84 | 91 | 11.7 | 72 | 89 | 100 | 85 | 95 | 73 | 82 | 66 | 100 | 68 | 100 | 66 | 99 | residual activity [21]: 36%; residual activity [22]: 90%; residual activity [23]: 83%; residual activity [24]: 91%; residual activity [25]: 81%; residual activity [26]: 89%; residual activity [27]: 81%; residual activity [28]: 98%; residual activity [29]: 100%; residual activity [30]: 100%; residual activity [31]: 92%; residual activity [32]: 74%; residual activity [33]: 69%; residual activity [34]: 100%; residual activity [35]: 98%; residual activity [36]: 99%; residual activity [37]: 100%; residual activity [38]: 86%; residual activity [39]: 97%
2 | Cn1cc(Cl)c2c(Oc3c(F)cc(Nc4cc(Cl)nc(N)n4)cc3F)ccnc21 [BAY-4900] | 66 | 1.05 | 93 | 100 | 98 | 96 | -4.05 | 68 | 96 | 92 | 78 | 72 | 82 | 76 | 99 | 100 | 70 | 90 | 64 | 90 | residual activity [21]: 92%; residual activity [22]: 98%; residual activity [23]: 91%; residual activity [24]: 86%; residual activity [25]: 100%; residual activity [26]: 89%; residual activity [27]: 95%; residual activity [28]: 100%; residual activity [29]: 100%; residual activity [30]: 96%; residual activity [31]: 100%; residual activity [32]: 74%; residual activity [33]: 97%; residual activity [34]: 100%; residual activity [35]: 90%; residual activity [36]: 100%; residual activity [37]: 80%; residual activity [38]: 76%; residual activity [39]: 99%
